Laboratory results reported in patent US4410716A, “Dibenzo[a,d]cycloheptene derivatives and process for production thereof” (Toa Eiyo Kagaku Kogyo Co. Ltd., priority 1979, dated 1983).
Entries after “also recorded” stand apart in the source; their conditions may differ. Where two headings read alike, the source gives them in different places.

How the values were obtained:
[1] = system: edema (carrageenin, hind paw); assay: Anti-inflammatory activity: carrageenin hind paw edema in rats, oral administration; type: in vivo, male Donryu rats; conditions: for inhibition in vivo at 5 mg/kg / inhibition in vivo at 20 mg/kg / inhibition in vivo at 50 mg/kg / ED40 / inhibition in vivo at 1 mg/kg / inhibition in vivo at 10 mg/kg / inhibition in vivo at 25 mg/kg / inhibition in vivo at 100 mg/kg: Rattus norvegicus; for inhibition in vivo at 5 mg/kg: 5 mg/kg oral; for inhibition in vivo at 5 mg/kg / inhibition in vivo at 20 mg/kg / inhibition in vivo at 50 mg/kg / inhibition in vivo at 1 mg/kg / inhibition in vivo at 10 mg/kg / inhibition in vivo at 25 mg/kg / inhibition in vivo at 100 mg/kg: read-out: Percent edema inhibition; for inhibition in vivo at 20 mg/kg: 20 mg/kg oral; for inhibition in vivo at 50 mg/kg: 50 mg/kg oral; for ED40: dose causing 40% inhibition, dose-response line, read-out: ED40 value; for ED40 / anti-inflammatory activity (in words): oral; for anti-inflammatory activity (in words): carrageenin edema, rat; for inhibition in vivo at 1 mg/kg: 1 mg/kg oral; for inhibition in vivo at 10 mg/kg: 10 mg/kg oral; for inhibition in vivo at 25 mg/kg: 25 mg/kg oral; for inhibition in vivo at 100 mg/kg: 100 mg/kg oral
Experimental: (§1) The anti-inflammatory activity, analgesic activity and ulcerogenic activity of the novel dibenzo[a,d]cycloheptene derivatives of this invention were tested by the following methods.
Each of test compounds was orally administered to groups of male Donryu rats weighing 130 to 150 g (8 to 10 rats per group), and one hour later, 0.1 ml of a 1% carrageenin solution was injected subcutaneously into the hind paw of each rat. After injection of carrageenin, the volume of the paw was measured at predetermined periods, and the percent inhibition against a control group was calculated.

[2] = system: writhing syndromes (acetic acid); assay: Analgesic activity: acetic acid writhing in mice; type: in vivo, male ICR mice
Experimental: as §1
Using male ICR mice weighing 25 to 30 g (10 mice per group), there was measured the number of writhing syndromes induced when a 1% solution of acetic acid was intraperitoneally injected at a dose of 10 ml/kg. The percent inhibition against a control group was calculated.

[3] = in vivo; conditions: rat, in vivo, po
Experimental: as §1
(§2) Sixteen hours later, the rats were sacrificed under ether anesthesia.
(§3) *Calculated by the Adami's method.
(§4) **Calculated by the LitchfieldWilcoxon's method. The parenthesized values
(§5) show 95% confidence limits.

[4] = system: gastric wall; assay: in vivo; conditions: rat, in vivo, po
Experimental: as §1, §2, §3, §4, §5

Compound COC1=Cc2ccccc2Cc2ccc(C(C)C(=O)O)cc21 (stereo not drawn) [Ih, 2-(11-methoxy-5H-dibenzo[a,d]cyclohepten-2-yl)propionic acid] has an inhibition in vivo at 5 mg/kg ([1]; 1 hour after carrageenin) of 18.4%, an inhibition in vivo at 5 mg/kg ([1]; 2 hours after carrageenin) of 24.7% and an inhibition in vivo at 5 mg/kg ([1]; 3 hours after carrageenin) of 12%. For the same compound, the inhibition in vivo at 5 mg/kg ([1]; 4 hours after carrageenin) was 12.6%, the inhibition in vivo at 20 mg/kg ([1]; 1 hour after carrageenin) was 28.1% and the inhibition in vivo at 20 mg/kg ([1]; 2 hours after carrageenin) was 22.9%. The inhibition in vivo at 20 mg/kg ([1]; 3 hours after carrageenin) was 26.8%, the inhibition in vivo at 20 mg/kg ([1]; 4 hours after carrageenin) was 26.8% and the inhibition in vivo at 50 mg/kg ([1]; 1 hour after carrageenin) was 35.6%. The inhibition in vivo at 50 mg/kg ([1]; 2 hours after carrageenin) was 32.9%, the inhibition in vivo at 50 mg/kg ([1]; 3 hours after carrageenin) was 35.4% and the inhibition in vivo at 50 mg/kg ([1]; 4 hours after carrageenin) was 35.7%. The ED40 ([1]; 3 hours after carrageenin) was 77 mg/kg and the “anti-inflammatory activity (in words)” value [1] was “excellent anti-inflammatory activity; also recorded: evidently show anti-inflammatory activity although their activity is weaker than that of indomethacin”.

In the case of CC(C(=O)O)c1ccc2c(c1)C(=O)Cc1ccccc1C2 (stereo not drawn) [compound Ii, 2-(10,11-dihydro-11-oxo-5H-dibenzo[a,d]cyclohepten-2-yl)propionic acid], the inhibition in vivo at 1 mg/kg ([1]; 1 hour after carrageenin) is reported as 34.4%, the inhibition in vivo at 1 mg/kg ([1]; 2 hours after carrageenin) is reported as 30.6% and the inhibition in vivo at 1 mg/kg ([1]; 3 hours after carrageenin) is reported as 32.4%. It also gave an inhibition in vivo at 1 mg/kg ([1]; 4 hours after carrageenin) of 32.4%, an inhibition in vivo at 5 mg/kg ([1]; 1 hour after carrageenin) of 35.8% and an inhibition in vivo at 5 mg/kg ([1]; 2 hours after carrageenin) of 54%. It also gave an inhibition in vivo at 5 mg/kg ([1]; 3 hours after carrageenin) of 51.7%, an inhibition in vivo at 5 mg/kg ([1]; 4 hours after carrageenin) of 50.9% and an inhibition in vivo at 10 mg/kg ([1]; 1 hour after carrageenin) of 50%. The inhibition in vivo at 10 mg/kg ([1]; 2 hours after carrageenin) was 55%, the inhibition in vivo at 10 mg/kg ([1]; 3 hours after carrageenin) was 54.6% and the inhibition in vivo at 10 mg/kg ([1]; 4 hours after carrageenin) was 54.6%. The ED40 ([1]; 3 hours after carrageenin) was 1.9 mg/kg, the “anti-inflammatory activity (in words)” value [1] was “excellent anti-inflammatory activity; also recorded: stronger than that of indomethacin; also recorded: very potent anti-inflammatory activity” and the “Inhibition (writhing)” value ([2]; 10.0 mg/kg) was 14.0%. For the same compound, the “Number of writhing syndromes (Mean ± SE)” value ([2]; 10.0 mg/kg) was 19.7 ± 1.77, the “Inhibition (writhing)” value ([2]; 20.0 mg/kg) was 33.6% and the “Number of writhing syndromes (Mean ± SE)” value ([2]; 20.0 mg/kg) was 15.2 ± 1.28. The “Inhibition (writhing)” value ([2]; 40.0 mg/kg) was 45.4%, the “Number of writhing syndromes (Mean ± SE)” value ([2]; 40.0 mg/kg) was 12.5 ± 1.65 and the “Inhibition (writhing)” value ([2]; 80.0 mg/kg) was 57.6%. For the same compound, the “Number of writhing syndromes (Mean ± SE)” value ([2]; 80.0 mg/kg) was 9.7 ± 1.93, the ED50 ([2]; Mus musculus, po, dose causing 50% inhibition of writhing, dose-response line, read-out: ED50 value) was 52 mg/kg and the “ED50 value relative to that of indomethacin” value ([2]; writhing, mouse) was “ten times”. The “analgesic activity (in words)” value ([2]; writhing, mouse) was “weak analgesic activity”, the “analgesic activity relative to indomethacin” value ([2]; writhing, mouse) was “one-tenth of that of indomethacin” and the TD50 at 16 h [3] was 15 mg/kg. It also gave a selectivity ratio [3] of 7.9.

Compound O=C(O)Cc1ccc2c(c1)Cc1ccccc1CC2=O [Ic, 10,11-dihydro-11-oxo-5H-dibenzo[a,d]cycloheptene-3-acetic acid] has an inhibition in vivo at 25 mg/kg ([1]; 1 hour after carrageenin) of 32.8%, an inhibition in vivo at 25 mg/kg ([1]; 2 hours after carrageenin) of 29.4% and an inhibition in vivo at 25 mg/kg ([1]; 3 hours after carrageenin) of 25.5%. It also gave an inhibition in vivo at 25 mg/kg ([1]; 4 hours after carrageenin) of 24%, an inhibition in vivo at 100 mg/kg ([1]; 1 hour after carrageenin) of 51.4% and an inhibition in vivo at 100 mg/kg ([1]; 2 hours after carrageenin) of 44.7%. For the same compound, the inhibition in vivo at 100 mg/kg ([1]; 3 hours after carrageenin) was 40.7%, the inhibition in vivo at 100 mg/kg ([1]; 4 hours after carrageenin) was 39.3% and the ED40 ([1]; 3 hours after carrageenin) was 94 mg/kg. For the same compound, the “anti-inflammatory activity (in words)” value [1] was “excellent anti-inflammatory activity; also recorded: evidently show anti-inflammatory activity although their activity is weaker than that of indomethacin”.

For O=C(O)Cc1ccc2c(c1)CC(=O)c1cc(Cl)ccc1C2 [Ie, 8-chloro-10,11-dihydro-10-oxo-5H-dibenzo[a,d]cycloheptene-2-acetic acid], the inhibition in vivo at 25 mg/kg ([1]; 1 hour after carrageenin) was 4.5%, the inhibition in vivo at 25 mg/kg ([1]; 2 hours after carrageenin) was 8.6% and the inhibition in vivo at 25 mg/kg ([1]; 3 hours after carrageenin) was 3%. For the same compound, the inhibition in vivo at 25 mg/kg ([1]; 4 hours after carrageenin) was 2.3%, the inhibition in vivo at 100 mg/kg ([1]; 1 hour after carrageenin) was -0.7% and the inhibition in vivo at 100 mg/kg ([1]; 2 hours after carrageenin) was 1.3%. For the same compound, the inhibition in vivo at 100 mg/kg ([1]; 3 hours after carrageenin) was -4.2% and the inhibition in vivo at 100 mg/kg ([1]; 4 hours after carrageenin) was -1.8%.

In the case of O=C(O)Cc1ccc2c(c1)C(=O)Cc1cc(F)ccc1C2 [Ib, 8-fluoro-10,11-dihydro-11-oxo-5H-dibenzo[a,d]cycloheptene-2-acetic acid], the inhibition in vivo at 25 mg/kg ([1]; 1 hour after carrageenin) is reported as 32.4%, the inhibition in vivo at 25 mg/kg ([1]; 2 hours after carrageenin) is reported as 45.3% and the inhibition in vivo at 25 mg/kg ([1]; 3 hours after carrageenin) is reported as 43.4%. For the same compound, the inhibition in vivo at 25 mg/kg ([1]; 4 hours after carrageenin) was 41.9%, the inhibition in vivo at 100 mg/kg ([1]; 1 hour after carrageenin) was 44.1% and the inhibition in vivo at 100 mg/kg ([1]; 2 hours after carrageenin) was 57.9%. For the same compound, the inhibition in vivo at 100 mg/kg ([1]; 3 hours after carrageenin) was 52.6%, the inhibition in vivo at 100 mg/kg ([1]; 4 hours after carrageenin) was 53% and the ED40 ([1]; 3 hours after carrageenin) was 15 mg/kg. The “anti-inflammatory activity (in words)” value [1] was “excellent anti-inflammatory activity; also recorded: evidently show anti-inflammatory activity although their activity is weaker than that of indomethacin” and the “ulcerogenic activity (in words)” value [4] was “much weaker than that of indomethacin”.

In the case of O=C(O)Cc1ccc2c(c1)CC(=O)c1ccccc1C2 [Id, 10,11-dihydro-10-oxo-5H-dibenzo[a,d]cycloheptene-2-acetic acid], the inhibition in vivo at 25 mg/kg ([1]; 1 hour after carrageenin) is reported as 36%, the inhibition in vivo at 25 mg/kg ([1]; 2 hours after carrageenin) is reported as 36% and the inhibition in vivo at 25 mg/kg ([1]; 3 hours after carrageenin) is reported as 21.4%. It also gave an inhibition in vivo at 25 mg/kg ([1]; 4 hours after carrageenin) of 18.4%, an inhibition in vivo at 100 mg/kg ([1]; 1 hour after carrageenin) of 44.6% and an inhibition in vivo at 100 mg/kg ([1]; 2 hours after carrageenin) of 39%. The inhibition in vivo at 100 mg/kg ([1]; 3 hours after carrageenin) was 28.1% and the inhibition in vivo at 100 mg/kg ([1]; 4 hours after carrageenin) was 21.4%.

Work on COC1=Cc2ccccc2Cc2ccc(CC(=O)O)cc21 [Ig, 11-methoxy-5H-dibenzo[a,d]cycloheptene-2-acetic acid] yielded an inhibition in vivo at 100 mg/kg ([1]; 1 hour after carrageenin) of 25.5%, an inhibition in vivo at 100 mg/kg ([1]; 2 hours after carrageenin) of 40.6% and an inhibition in vivo at 100 mg/kg ([1]; 3 hours after carrageenin) of 42.6%. The inhibition in vivo at 100 mg/kg ([1]; 4 hours after carrageenin) was 37.1%.

For O=C(O)Cc1ccc2c(c1)Cc1ccccc1C(=O)C2 [If, 10,11-dihydro-10-oxo-5H-dibenzo[a,d]cycloheptene-3-acetic acid], the inhibition in vivo at 25 mg/kg ([1]; 1 hour after carrageenin) was -22.6%, the inhibition in vivo at 25 mg/kg ([1]; 2 hours after carrageenin) was -16.8% and the inhibition in vivo at 25 mg/kg ([1]; 3 hours after carrageenin) was -12.3%. It also gave an inhibition in vivo at 25 mg/kg ([1]; 4 hours after carrageenin) of -8.7%, an inhibition in vivo at 100 mg/kg ([1]; 1 hour after carrageenin) of -23.5% and an inhibition in vivo at 100 mg/kg ([1]; 2 hours after carrageenin) of -21.4%. It also gave an inhibition in vivo at 100 mg/kg ([1]; 3 hours after carrageenin) of -9.1% and an inhibition in vivo at 100 mg/kg ([1]; 4 hours after carrageenin) of -5.5%.

O=C(O)Cc1ccc2c(c1)C(=O)Cc1ccccc1C2 [Ia, 10,11-dihydro-11-oxo-5H-dibenzo[a,d]cycloheptene-2-acetic acid] gave an inhibition in vivo at 25 mg/kg ([1]; 1 hour after carrageenin) of 28.2%, an inhibition in vivo at 25 mg/kg ([1]; 2 hours after carrageenin) of 41.8% and an inhibition in vivo at 25 mg/kg ([1]; 3 hours after carrageenin) of 44.5%. For the same compound, the inhibition in vivo at 25 mg/kg ([1]; 4 hours after carrageenin) was 41%, the inhibition in vivo at 100 mg/kg ([1]; 1 hour after carrageenin) was 33% and the inhibition in vivo at 100 mg/kg ([1]; 2 hours after carrageenin) was 50%. For the same compound, the inhibition in vivo at 100 mg/kg ([1]; 3 hours after carrageenin) was 53.7%, the inhibition in vivo at 100 mg/kg ([1]; 4 hours after carrageenin) was 52.2% and the ED40 ([1]; 3 hours after carrageenin) was 13 mg/kg. For the same compound, the “anti-inflammatory activity (in words)” value [1] was “excellent anti-inflammatory activity; also recorded: evidently show anti-inflammatory activity although their activity is weaker than that of indomethacin” and the “ulcerogenic activity (in words)” value [4] was “much weaker than that of indomethacin”.
